Source: article PMC4846432 (Science Advances, 2016)
pIC50: −log10 of the molar value.

Key:
mouse P-gp [1] = target: T1, mouse P-gp (Mus musculus, UniProt P21447, N83Q/N87Q/N90Q); test: Yeast chemosensitization; format: cell-based; conditions: for IYeast, inhibition in the yeast cytotoxicity assay: P-gp-expressing yeast, +10 μM DOX; for Chemosensitizing effect on P-gp-expressing yeast toward DOX (in words): cellular assay
mouse P-gp [2] = target: T1, mouse P-gp; test: biochemical
mouse P-gp [3] = target: T1, mouse P-gp; conditions: endrin vs its stereoisomer dieldrin

T1 sequence (P21447 whole entry N83Q/N87Q/N90Q): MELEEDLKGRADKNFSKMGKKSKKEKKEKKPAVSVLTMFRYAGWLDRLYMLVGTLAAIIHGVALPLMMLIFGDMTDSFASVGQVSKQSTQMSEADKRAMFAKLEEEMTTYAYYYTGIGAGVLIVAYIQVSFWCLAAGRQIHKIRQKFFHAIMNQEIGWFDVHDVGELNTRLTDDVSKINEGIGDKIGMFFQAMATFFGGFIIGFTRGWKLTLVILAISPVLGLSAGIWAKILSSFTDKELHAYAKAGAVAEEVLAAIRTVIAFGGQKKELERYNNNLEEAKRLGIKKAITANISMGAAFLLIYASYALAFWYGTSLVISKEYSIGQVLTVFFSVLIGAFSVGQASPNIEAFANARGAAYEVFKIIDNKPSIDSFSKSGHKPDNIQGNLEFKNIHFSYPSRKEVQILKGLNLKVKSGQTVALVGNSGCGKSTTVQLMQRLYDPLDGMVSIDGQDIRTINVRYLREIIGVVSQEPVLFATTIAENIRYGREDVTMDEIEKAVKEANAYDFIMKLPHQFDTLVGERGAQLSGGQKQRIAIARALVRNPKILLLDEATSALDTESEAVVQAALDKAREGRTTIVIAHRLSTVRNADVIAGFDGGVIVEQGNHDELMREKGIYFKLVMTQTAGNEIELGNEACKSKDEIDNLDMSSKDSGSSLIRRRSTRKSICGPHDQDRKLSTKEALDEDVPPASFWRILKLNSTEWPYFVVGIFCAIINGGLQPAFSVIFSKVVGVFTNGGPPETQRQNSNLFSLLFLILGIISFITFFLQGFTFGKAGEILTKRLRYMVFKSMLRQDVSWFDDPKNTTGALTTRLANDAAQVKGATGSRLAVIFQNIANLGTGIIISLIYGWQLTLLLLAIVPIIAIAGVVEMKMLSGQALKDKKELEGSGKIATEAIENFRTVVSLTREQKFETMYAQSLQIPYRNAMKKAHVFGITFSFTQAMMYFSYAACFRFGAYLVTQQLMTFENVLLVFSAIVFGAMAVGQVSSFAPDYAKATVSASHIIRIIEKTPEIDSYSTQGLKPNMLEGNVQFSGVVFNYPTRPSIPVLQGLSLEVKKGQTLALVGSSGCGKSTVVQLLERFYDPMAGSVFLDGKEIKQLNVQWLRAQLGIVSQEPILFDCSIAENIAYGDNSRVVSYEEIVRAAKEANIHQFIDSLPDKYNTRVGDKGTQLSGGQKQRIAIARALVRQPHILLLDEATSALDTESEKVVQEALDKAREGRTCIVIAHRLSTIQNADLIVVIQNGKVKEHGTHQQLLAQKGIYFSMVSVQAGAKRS

| SMILES | IYeast, inhibition in the yeast cytotoxicity assay (mouse P-gp [1]) | pIC50 (mouse P-gp [2]) | Chemosensitizing effect on P-gp-expressing yeast toward DOX (in words) (mouse P-gp [1]) | Potency in ATPase assay relative to dieldrin (mouse P-gp [3]) |
| --- | --- | --- | --- | --- |
| ClC(Cl)=C(c1ccc(Cl)cc1)c1ccc(Cl)cc1 [4,4′-DDE, dichlorodiphenyldichloroethylene] | Y | 4.50 |  |  |
| ClC1=C(Cl)C2(Cl)C3C4C=CC(C4)C3C1(Cl)C2(Cl)Cl (stereo not shown) [Aldrin] | Y | 4.58 |  |  |
| CC(C)(c1ccc(O)cc1)c1ccc(O)cc1 [Bisphenol A] | N |  |  |  |
| CCCCC(CC)COC(=O)c1ccccc1C(=O)OCC(CC)CCCC (stereo not shown) [DEHP, di(2-ethylhexyl)phthalate] | N |  |  |  |
| ClC1=C(Cl)[C@]2(Cl)[C@@H]3[C@@H]4C[C@@H]([C@H]5O[C@@H]45)[C@@H]3[C@@]1(Cl)C2(Cl)Cl [Dieldrin] | Y | 4.66 | markedly lower inhibitory effect |  |
| ClC1=C(Cl)C2(Cl)C3C4CC(C5OC45)C3C1(Cl)C2(Cl)Cl (stereo not shown) [Endrin] | Y | 5.96 | most pronounced chemosensitizing effect | ~20 times |
| ClC1=C(Cl)C2(Cl)C3C(Cl)C=CC3C1(Cl)C2(Cl)Cl (stereo not shown) [Heptachlor] | N | 4.98 |  |  |
| COc1ccc(C(c2ccc(OC)cc2)C(Cl)(Cl)Cl)cc1 [Methoxychlor] | N | 4.66 |  |  |
| ClC1(Cl)C2(Cl)C3(Cl)C4(Cl)C(Cl)(Cl)C5(Cl)C3(Cl)C1(Cl)C5(Cl)C24Cl (stereo not shown) [Mirex] | N | 5.52 |  |  |
| Brc1ccc(Oc2ccccc2)cc1 [PBDE-3] | N |  |  |  |
| Brc1ccc(Oc2cc(Br)ccc2Br)c(Br)c1 [PBDE-49] | Y |  |  |  |
| Brc1ccc(Oc2c(Br)cc(Br)cc2Br)c(Br)c1 [PBDE-100] | Y | 4.63 |  |  |
| Brc1c(Br)c(Br)c(Oc2c(Br)c(Br)c(Br)c(Br)c2Br)c(Br)c1Br [PBDE-209] | N |  |  |  |
| Clc1ccc(-c2cc(Cl)c(Cl)cc2Cl)cc1Cl [PCB-118] | N |  |  |  |
| Clc1ccccc1-c1c(Cl)c(Cl)c(Cl)c(Cl)c1Cl [PCB-142] | Y |  |  |  |
| Clc1cc(Cl)c(-c2c(Cl)cccc2Cl)c(Cl)c1Cl [PCB-145] | Y |  |  |  |
| Clc1ccc(-c2c(Cl)c(Cl)cc(Cl)c2Cl)c(Cl)c1 [PCB-147] | Y |  |  |  |
| Clc1cc(Cl)c(Cl)c(-c2c(Cl)cccc2Cl)c1Cl [PCB-152] | N |  |  |  |
| Clc1cc(Cl)c(-c2cc(Cl)c(Cl)cc2Cl)cc1Cl [PCB-153] | N |  |  |  |
| Clc1cc(Cl)c(-c2cc(Cl)c(Cl)cc2Cl)c(Cl)c1 [PCB-154] | N |  |  |  |
| Clc1cc(Cl)cc(-c2c(Cl)cc(Cl)c(Cl)c2Cl)c1 [PCB-161] | N |  |  |  |
| Clc1cc(Cl)c(-c2cc(Cl)c(Cl)c(Cl)c2)c(Cl)c1 [PCB-168] | N |  |  |  |
| Clc1cc(-c2cc(Cl)c(Cl)c(Cl)c2)cc(Cl)c1Cl [PCB-169] | N |  |  |  |
| Clc1cccc(Cl)c1-c1c(Cl)c(Cl)c(Cl)c(Cl)c1Cl [PCB-186] | N |  |  |  |
| O=C(O)C(F)(F)C(F)(F)C(F)(F)C(F)(F)C(F)(F)C(F)(F)C(F)(F)F [PFOA, perfluorooctanoic acid] | N | 3.81 |  |  |
| O=S(=O)(O)C(F)(F)C(F)(F)C(F)(F)C(F)(F)C(F)(F)C(F)(F)C(F)(F)C(F)(F)F [PFOS, perfluorooctane sulfonate] | N |  |  |  |
| Cl[C@H]1[C@H](Cl)[C@H](Cl)[C@@H](Cl)[C@H](Cl)[C@H]1Cl [α-HCH, α-hexachlorocyclohexane] | N | 4.57 |  |  |
| Cl[C@H]1[C@H](Cl)[C@@H](Cl)[C@H](Cl)[C@@H](Cl)[C@@H]1Cl [β-HCH, β-hexachlorocyclohexane] | N |  |  |  |
| Cl[C@H]1[C@H](Cl)[C@@H](Cl)[C@@H](Cl)[C@H](Cl)[C@H]1Cl [γ-HCH (lindane), lindane] | N | 4.08 |  |  |
